{"source": "patent US20250002492A1", "about": "“COMPOSITIONS OF FOLATE ABSORPTION INHIBITORS AND METHODS THEREOF” (THE TEXAS A&M UNIVERSITY SYSTEM, priority 2023, published 2025)", "key": {"[1]": {"target": "T1, Folate Uptake Transporter (PCFT) in Caco2 cells (Homo sapiens, UniProt Q96NT5)", "T1 construct": "These cells express high levels of the PCFT/SLC46A1 receptor; host or cells: Caco-2", "T1 sequence (Q96NT5 1-459)": "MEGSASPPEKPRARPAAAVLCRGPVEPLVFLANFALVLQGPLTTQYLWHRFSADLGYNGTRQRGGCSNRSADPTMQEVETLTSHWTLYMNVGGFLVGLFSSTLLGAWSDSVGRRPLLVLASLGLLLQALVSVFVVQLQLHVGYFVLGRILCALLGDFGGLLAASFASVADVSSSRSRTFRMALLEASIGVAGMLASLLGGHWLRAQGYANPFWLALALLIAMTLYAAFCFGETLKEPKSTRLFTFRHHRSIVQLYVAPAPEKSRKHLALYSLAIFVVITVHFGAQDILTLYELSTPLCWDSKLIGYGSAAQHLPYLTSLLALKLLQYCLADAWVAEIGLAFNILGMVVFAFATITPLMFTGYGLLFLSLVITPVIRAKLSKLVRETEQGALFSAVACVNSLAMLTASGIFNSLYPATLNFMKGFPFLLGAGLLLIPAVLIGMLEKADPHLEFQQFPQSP", "test": "Folate uptake transporter substrate assessment in Caco2 cell line (compound uptake with and without pemetrexed)", "format": "in vitro ADME", "experimental": "Cell Plates were Prepared According to the Methods of Example 8 Using Caco-2 Cells from American Type Culture Collection at Passage 37.\nThe transport buffer (HBSS with 10 mM MES, pH 5.5) was prepared by weighing 1.952 g of MES and 0.35 g sodium hydrogen carbonate and adding into 900 mL of pure water followed by sonication to dissolve the content. Following the transfer of 100 mL of 10×HBSS into the solution. The solution was placed on a stirrer, the pH was slowly adjusted with hydrochloric acid to 5.5, and then the solution was filtered to get HBSS solution (with 10 mM MES, pH 5.5).\nThe test compounds and folic acid (1 μM) substrate solutions were prepared by diluting with pH 5.5 buffer. Next, the test compounds and folic acid (1 μM) substrate solution+positive control inhibitor (pemetrexed, 50 μM) were prepared. For the solution without inhibitor, DMSO was diluted with corresponding substrate solution to get the working incubation solution.\nFor the solution with inhibitor, the pre-incubation solution was prepared by adding the positive control inhibitor (pemetrexed, 50 μM) in pH 5.5 buffer. For the solution without inhibitor, DMSO was diluted with pH 5.5 buffer and used as the vehicle control.\nWhen the 8-10 day Caco-2 cultured cells reached confluence and were differentiated, they were ready to be used for transport studies. The Caco-2 plate was removed from the incubator, and the medium was removed from the 24-well Plates. Next, cells were washed 3 times with 300 μL of pre-warmed pH 5.5 buffer. Then, 300 μL of pre-incubation solution was added into each well and the plate was placed at 37° C. for 30 minutes. The assay was performed in duplicate. After 30 minutes pre-incubation, the pre-incubation solution was aspirated, and 300 μL of pre-warmed working incubation solution was added to start the transporter assay. After 6 minutes incubation, cells were washed by quickly adding/aspirating 300 μL of ice-cold pH 5.5 buffer 4 times. The pH 5.5 buffer was removed and 300 μL of pure water was added into each well. Freeze-thaw in liquid nitrogen and 37° C. incubator was repeated for 3 times to lyse cells. After, centrifugation at 3,300 g was performed for 30 seconds. Next, 50 μL of supernatant was transferred to 200 μL methanol or acetonitrile containing internal standard and centrifuged at 3,300 g for 30 minutes. 200 μL aliquots of the supernatants were used for LC-MS/MS analysis. Standards were treated the same as samples.\nA BCA Kit was used to determine the protein content for each well. Bovine serum albumin at 2, 1, 0.5, 0.25, 0.125, 0.0625, 0.0313, 0.0156, 0.00781 and 0.00391 mg/mL was prepared in Phosphate Buffer Saline (PBS, pH 7.4). 10 μL of supernatant was mixed from the previous step with the same volume of PBS. 20 μL of standard or test sample was added into 96-well clear plate and mixed with 200 μL working reagent. After 30 minutes incubation at 37° C., the absorbance at 562 nm was measured on the microplate reader.\nStandard-curves: prepared 200 μM DMSO Folic acid solution, samples of 1000 nm, 300 nm, 100 nm, 30 nM, and 10 nM prepared using a PH 5.5 buffer, and a PH 5.5 buffer containing 50 μM of pemetrexed, respectively.\nAll calculations were carried out using Microsoft Excel. Peak areas were determined from extracted ion chromatograms. Uptake rate, in unit of pmol/mg protein/min, is calculated using the following equation: Uptake rate=Conc./(Protein×Time); Conc. is concentration of drug in cell lysate (nM), Protein is the protein concentration of cell lysate (mg/mL), and Time is the incubation time (minute). Uptake ratio is calculated using the following equation: Uptake ratio=Uptake rate without inhibitor/Uptake rate with inhibitor. Note: The compound was considered as a potential substrate of a particular transporter when the uptake ratio was greater than 2."}, "Caco-2 cells": {"tested_on": "Caco-2 cells", "test": "Toxicity in Caco-2 cells", "format": "cell-based", "details": "tested at 2-400 μM"}}}
{"smiles": "CC(=O)N1CCC(C(=O)N2CCN3C(=O)c4cc(-c5ccccc5)ccc4NC(=O)C3C2)CC1", "note": "(stereo not drawn) [MPOL_B_1, 2-(1-acetylpiperidine-4-carbonyl)-8-phenyl-1,3,4,12a-tetrahydrobenzo[e]pyrazino[1,2-a][1,4]diazepine-6,12(2H,11H)-dione]", "values": [{"measurement": "cell permeability", "setting": "[1]; Caco-2", "value": "least permeable"}, {"measurement": "Uptake Ratio(−Inhibitor/+Inhibitor)", "setting": "[1]; human, Caco-2, 6 min, 1 μM, pH 5.5", "value": 0.76}, {"measurement": "toxicity", "setting": "Caco-2 cells", "value": "not toxic"}]}
